One block for each compound: values may come before it. Calls of active or inactive are those of the source.
Tests used:
[1] = target: T1, Sentrin-specific protease 8 (Homo sapiens, UniProt Q96LD8); experiment: inhibition of human SENP8 cleavage activity – biochemical, luminescence, SAR follow-up (AID 504501); assay type: functional
T1 sequence (Q96LD8 whole entry): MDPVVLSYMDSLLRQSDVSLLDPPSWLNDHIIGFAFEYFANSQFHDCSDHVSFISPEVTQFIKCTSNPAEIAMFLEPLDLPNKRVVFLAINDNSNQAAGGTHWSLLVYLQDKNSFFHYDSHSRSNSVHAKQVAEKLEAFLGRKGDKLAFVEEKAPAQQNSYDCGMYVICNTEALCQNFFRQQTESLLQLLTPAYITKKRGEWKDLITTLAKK

[2] = target: T2, Sentrin-specific protease 6 (Homo sapiens, UniProt Q9GZR1); experiment: SAR Analysis of small molecule inhibitors of Sentrin-specific protease 6 (SENP6) using a Luminescent assay. [Related pubchem assays (depositor defined):AID2582, AID2599]; assay type: functional
T2 sequence (Q9GZR1 whole entry): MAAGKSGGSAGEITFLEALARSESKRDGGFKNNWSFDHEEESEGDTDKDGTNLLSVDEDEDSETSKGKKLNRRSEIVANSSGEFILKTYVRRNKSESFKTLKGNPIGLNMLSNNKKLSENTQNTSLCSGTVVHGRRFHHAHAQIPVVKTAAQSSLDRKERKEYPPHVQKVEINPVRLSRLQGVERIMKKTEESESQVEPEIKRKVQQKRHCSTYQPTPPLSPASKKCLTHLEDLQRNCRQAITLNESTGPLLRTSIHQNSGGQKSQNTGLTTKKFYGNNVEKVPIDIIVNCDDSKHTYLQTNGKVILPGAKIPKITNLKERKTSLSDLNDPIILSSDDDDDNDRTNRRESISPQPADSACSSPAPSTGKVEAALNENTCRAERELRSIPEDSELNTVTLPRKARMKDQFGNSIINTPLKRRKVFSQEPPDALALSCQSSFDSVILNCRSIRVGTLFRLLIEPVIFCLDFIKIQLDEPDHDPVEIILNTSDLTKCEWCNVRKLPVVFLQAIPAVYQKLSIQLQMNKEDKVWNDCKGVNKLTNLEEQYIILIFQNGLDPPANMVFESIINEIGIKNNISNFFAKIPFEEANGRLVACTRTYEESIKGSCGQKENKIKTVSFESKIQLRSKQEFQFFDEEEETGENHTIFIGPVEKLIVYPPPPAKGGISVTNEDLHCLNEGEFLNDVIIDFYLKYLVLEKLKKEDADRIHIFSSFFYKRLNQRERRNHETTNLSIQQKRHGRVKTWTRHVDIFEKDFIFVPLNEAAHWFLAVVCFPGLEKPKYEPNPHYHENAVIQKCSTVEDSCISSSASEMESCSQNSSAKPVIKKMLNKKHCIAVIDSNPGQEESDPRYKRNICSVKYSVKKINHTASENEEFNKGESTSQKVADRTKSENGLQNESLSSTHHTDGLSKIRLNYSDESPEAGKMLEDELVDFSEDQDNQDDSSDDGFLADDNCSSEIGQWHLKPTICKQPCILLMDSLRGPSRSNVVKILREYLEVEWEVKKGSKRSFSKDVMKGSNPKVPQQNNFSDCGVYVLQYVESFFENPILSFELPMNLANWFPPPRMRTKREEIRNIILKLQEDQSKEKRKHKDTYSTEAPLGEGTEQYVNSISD

[3] = target: T3, Sentrin-specific protease 7 (Homo sapiens, UniProt Q9BQF6); experiment: inhibition of human SENP7 cleavage activity – biochemical, luminescence, SAR follow-up (AID 504497); assay type: functional
T3 sequence (Q9BQF6 whole entry): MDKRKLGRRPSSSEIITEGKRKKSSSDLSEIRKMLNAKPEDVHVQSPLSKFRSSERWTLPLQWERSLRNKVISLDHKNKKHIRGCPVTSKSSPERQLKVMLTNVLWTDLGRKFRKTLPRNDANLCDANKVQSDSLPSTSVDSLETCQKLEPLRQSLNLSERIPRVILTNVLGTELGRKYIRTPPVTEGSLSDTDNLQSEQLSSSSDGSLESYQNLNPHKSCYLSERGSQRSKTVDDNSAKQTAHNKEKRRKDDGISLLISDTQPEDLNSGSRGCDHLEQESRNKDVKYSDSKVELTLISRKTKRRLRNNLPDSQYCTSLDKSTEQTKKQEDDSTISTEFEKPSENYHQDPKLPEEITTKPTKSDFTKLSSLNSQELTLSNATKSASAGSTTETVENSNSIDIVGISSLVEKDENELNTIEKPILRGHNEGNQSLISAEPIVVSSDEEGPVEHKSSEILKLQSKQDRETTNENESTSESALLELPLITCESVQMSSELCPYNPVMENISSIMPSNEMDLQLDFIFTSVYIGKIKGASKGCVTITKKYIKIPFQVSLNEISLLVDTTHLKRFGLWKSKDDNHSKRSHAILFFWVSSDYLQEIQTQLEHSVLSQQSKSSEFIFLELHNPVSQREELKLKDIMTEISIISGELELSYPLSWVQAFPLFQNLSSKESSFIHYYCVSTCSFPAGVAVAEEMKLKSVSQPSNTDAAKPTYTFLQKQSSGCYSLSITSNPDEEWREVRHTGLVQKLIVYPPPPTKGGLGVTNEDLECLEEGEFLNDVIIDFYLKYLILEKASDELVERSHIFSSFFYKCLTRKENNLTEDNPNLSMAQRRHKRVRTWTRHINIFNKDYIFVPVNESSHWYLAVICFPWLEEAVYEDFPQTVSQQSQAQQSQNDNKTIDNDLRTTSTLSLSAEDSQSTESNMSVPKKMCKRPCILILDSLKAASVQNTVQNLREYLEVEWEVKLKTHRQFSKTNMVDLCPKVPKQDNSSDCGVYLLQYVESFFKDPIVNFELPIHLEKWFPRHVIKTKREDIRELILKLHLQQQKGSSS

Caspase-3 = target: T4, Caspase-3 (Homo sapiens, UniProt P42574); experiment: SAR Analysis of small molecule inhibitors of Sentrin-specific proteases (SENPs) using a Caspase-3 Selectivity assay. [Related pubchem assays (depositor defined):AID2540, AID2599, AID434973, AID489001]; assay type: functional
T4 sequence (P42574 whole entry): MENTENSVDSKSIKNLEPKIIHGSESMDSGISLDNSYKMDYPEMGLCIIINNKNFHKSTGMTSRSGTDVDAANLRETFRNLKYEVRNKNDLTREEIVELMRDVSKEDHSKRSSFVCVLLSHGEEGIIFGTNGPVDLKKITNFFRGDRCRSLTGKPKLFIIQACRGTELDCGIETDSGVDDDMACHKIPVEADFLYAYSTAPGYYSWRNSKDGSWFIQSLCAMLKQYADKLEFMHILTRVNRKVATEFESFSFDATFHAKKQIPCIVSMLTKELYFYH

[4] = target: Dual specificity protein phosphatase 3 (Homo sapiens, UniProt P51452); experiment: VHR phosphatase inhibition, dose response, selectivity assay for STEP inhibitor project, biochemical (AID 602374); assay type: functional; settings: read-out: IC50_Mean
Chain of Dual specificity protein phosphatase 3 (P51452 whole entry): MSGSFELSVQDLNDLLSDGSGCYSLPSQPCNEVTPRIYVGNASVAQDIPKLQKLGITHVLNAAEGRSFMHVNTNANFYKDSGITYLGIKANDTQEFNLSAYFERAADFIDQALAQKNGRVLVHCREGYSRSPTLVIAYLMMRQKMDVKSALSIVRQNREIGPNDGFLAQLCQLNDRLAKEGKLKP

[5] = target: Tyrosine-protein phosphatase non-receptor type 11 (Homo sapiens, UniProt Q06124); experiment: PTPN11 enzyme inhibitors – biochemical, selectivity assay for STEP inhibitor project, dose response (AID 602367); assay type: functional; settings: read-out: IC50_Mean
[6] = target: Tyrosine-protein phosphatase non-receptor type 5 (Homo sapiens, UniProt P54829); experiment: PTPN5 enzyme inhibition – biochemical, fluorescence intensity, uHTS hits, confirmation (AID 602372); assay type: functional; settings: read-out: IC50_Mean
Chain of Tyrosine-protein phosphatase non-receptor type 5 (P54829 whole entry): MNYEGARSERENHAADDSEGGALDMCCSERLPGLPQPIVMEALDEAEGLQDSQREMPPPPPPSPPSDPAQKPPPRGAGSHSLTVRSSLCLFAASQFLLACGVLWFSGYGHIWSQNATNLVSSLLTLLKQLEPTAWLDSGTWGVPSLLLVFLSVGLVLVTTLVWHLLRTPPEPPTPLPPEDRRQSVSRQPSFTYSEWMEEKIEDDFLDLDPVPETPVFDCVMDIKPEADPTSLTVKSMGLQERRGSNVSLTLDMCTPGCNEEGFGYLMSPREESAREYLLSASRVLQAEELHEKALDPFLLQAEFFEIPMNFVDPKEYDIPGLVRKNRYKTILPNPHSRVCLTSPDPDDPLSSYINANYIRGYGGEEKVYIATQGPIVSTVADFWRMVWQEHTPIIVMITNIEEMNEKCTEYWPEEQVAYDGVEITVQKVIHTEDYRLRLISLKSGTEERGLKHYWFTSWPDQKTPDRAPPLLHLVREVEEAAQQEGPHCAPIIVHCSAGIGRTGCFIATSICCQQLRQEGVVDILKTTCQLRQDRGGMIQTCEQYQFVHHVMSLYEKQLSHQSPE

Prothrombin = Prothrombin (Bos taurus, UniProt P00735); experiment: thrombin protease inhibitors – biochemical, fluorescence polarization, uHTS hits, dose response (AID 602369); assay type: functional
[7] = target: 72 kDa type IV collagenase (Homo sapiens, UniProt P08253); experiment: Dose Response validation of uHTS RPN11 inhibitor hits using a MMP-2 Fluorescence assay.; assay type: functional
Chain of 72 kDa type IV collagenase (P08253 whole entry, the tested form may be a part): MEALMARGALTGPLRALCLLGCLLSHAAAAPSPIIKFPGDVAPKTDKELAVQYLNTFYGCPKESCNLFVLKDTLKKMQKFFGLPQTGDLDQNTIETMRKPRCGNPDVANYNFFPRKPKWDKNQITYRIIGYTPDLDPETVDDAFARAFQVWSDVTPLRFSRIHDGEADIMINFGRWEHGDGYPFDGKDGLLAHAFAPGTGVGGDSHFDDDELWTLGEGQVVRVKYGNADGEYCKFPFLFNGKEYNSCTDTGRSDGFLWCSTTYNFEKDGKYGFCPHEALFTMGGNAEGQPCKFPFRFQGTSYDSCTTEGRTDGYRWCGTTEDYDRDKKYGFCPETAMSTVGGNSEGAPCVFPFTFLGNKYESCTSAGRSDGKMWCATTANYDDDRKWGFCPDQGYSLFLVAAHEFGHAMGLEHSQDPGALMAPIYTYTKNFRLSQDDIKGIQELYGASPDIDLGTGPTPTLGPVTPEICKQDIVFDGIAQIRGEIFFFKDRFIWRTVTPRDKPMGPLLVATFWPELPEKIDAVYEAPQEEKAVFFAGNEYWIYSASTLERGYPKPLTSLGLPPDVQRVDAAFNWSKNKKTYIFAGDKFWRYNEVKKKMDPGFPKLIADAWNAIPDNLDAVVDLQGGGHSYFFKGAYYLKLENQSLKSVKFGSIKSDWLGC

[8] = target: T5, Carboxy-terminal domain RNA polymerase II polypeptide A small phosphatase 1 (Homo sapiens, UniProt Q9GZU7); experiment: CTDSP1 inhibitors, concentration-response, biochemical, absorbance readout, ultra-high-throughput screen actives (AID 540297); assay type: functional
T5 sequence (Q9GZU7 whole entry): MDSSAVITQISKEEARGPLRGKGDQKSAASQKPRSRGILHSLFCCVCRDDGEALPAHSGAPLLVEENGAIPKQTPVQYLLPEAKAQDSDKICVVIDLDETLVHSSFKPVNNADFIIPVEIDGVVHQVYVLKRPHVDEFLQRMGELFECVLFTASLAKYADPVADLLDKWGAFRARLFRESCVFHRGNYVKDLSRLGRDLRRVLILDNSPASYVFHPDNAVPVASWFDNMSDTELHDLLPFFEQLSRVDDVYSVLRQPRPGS

[9] = target: 26S proteasome non-ATPase regulatory subunit 14 (Homo sapiens, UniProt O00487); experiment: inhibition of proteasome subunit RPN11 – biochemical, fluorescence polarization, uHTS hits, confirmation (AID 602368); assay type: functional
Chain of 26S proteasome non-ATPase regulatory subunit 14 (O00487 whole entry): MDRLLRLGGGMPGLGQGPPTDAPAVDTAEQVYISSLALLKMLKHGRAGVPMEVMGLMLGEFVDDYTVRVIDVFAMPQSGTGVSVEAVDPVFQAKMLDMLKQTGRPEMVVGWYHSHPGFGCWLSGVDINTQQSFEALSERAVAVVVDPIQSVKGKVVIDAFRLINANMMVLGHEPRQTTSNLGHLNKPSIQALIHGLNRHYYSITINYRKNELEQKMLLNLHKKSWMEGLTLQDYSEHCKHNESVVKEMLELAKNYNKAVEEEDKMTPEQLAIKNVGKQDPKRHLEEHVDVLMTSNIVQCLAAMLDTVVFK

[10] = reduction of Shn3 3'UTR-driven luciferase in osteoblasts – cell-based, Clone20 osteoblasts, firefly luciferase, cherry-picked, dose response (AID 624132); assay type: functional;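 further: firefly luciferase luminescence from reporter carrying the Shn3 3'UTR in osteoblasts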
[11] = loss of viability in HepG2 cells – cell-based, CellTiter-Glo, cherry-picked, cytotoxicity control for Shn3 inhibitor project, dose response (AID 624134); assay type: functional
Melanocortin receptor 4 = Melanocortin receptor 4 (Homo sapiens, UniProt P32245); assay type: functional, cell-based;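 further: Cell-based assay with luminescence read-out, confirmatory dose-response testing for agonist activity of biased ligands at MC4R; human U2OS cells with tagged receptor and beta-arrestin; potency of agonists that increase receptor coupling to beta-arrestin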
Chain of Melanocortin receptor 4 (P32245 whole entry): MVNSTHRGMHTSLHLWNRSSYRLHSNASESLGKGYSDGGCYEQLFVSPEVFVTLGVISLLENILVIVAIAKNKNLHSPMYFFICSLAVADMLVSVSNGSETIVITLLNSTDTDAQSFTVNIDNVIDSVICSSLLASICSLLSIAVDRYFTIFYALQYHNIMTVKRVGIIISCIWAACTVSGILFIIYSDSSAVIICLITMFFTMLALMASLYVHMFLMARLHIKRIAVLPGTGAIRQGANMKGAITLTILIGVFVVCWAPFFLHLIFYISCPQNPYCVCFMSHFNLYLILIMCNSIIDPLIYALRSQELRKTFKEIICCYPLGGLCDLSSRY

[12] = non-specific 3'UTR reporter inhibition in Clone20-Shn3RL – cell-based, Renilla luciferase, cherry-picked, counter-screen for Shn3 inhibitor project, dose response (AID 624133); assay type: functional
[13] = Trypanosoma cruzi growth suppression in host cells – NIH3T3 host cells, beta-gal luminescence, confirmation (AID 2044); assay type: functional, cell-based;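 further: intracellular parasites grown in NIH/3T3 mouse fibroblasts as host cells; luminescent beta-galactosidase reporter signal from transgenic T. cruzi replicating inside host cells; inhibitors lower the luminescence signal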
[14] = NIH3T3 cell viability loss – ATP luminescence, mouse fibroblasts, counter-screen, dose response (AID 2010); assay type: functional, cell-based;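 further: cells exposed to compound for about 90 hours before reading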
[15] = target: T6, Polyadenylate-binding protein 1 (Homo sapiens, UniProt P11940); experiment: MLLE binding blockers, Cy5 peptide tracer – biochemical, fluorescence polarization, Cy5-PAM2 peptide, secondary, miRNA deadenylation inhibitor project, dose response (AID 602260); assay type: functional; settings: read-out: IC50_Mean
T6 sequence (P11940 whole entry, the tested form may be a part): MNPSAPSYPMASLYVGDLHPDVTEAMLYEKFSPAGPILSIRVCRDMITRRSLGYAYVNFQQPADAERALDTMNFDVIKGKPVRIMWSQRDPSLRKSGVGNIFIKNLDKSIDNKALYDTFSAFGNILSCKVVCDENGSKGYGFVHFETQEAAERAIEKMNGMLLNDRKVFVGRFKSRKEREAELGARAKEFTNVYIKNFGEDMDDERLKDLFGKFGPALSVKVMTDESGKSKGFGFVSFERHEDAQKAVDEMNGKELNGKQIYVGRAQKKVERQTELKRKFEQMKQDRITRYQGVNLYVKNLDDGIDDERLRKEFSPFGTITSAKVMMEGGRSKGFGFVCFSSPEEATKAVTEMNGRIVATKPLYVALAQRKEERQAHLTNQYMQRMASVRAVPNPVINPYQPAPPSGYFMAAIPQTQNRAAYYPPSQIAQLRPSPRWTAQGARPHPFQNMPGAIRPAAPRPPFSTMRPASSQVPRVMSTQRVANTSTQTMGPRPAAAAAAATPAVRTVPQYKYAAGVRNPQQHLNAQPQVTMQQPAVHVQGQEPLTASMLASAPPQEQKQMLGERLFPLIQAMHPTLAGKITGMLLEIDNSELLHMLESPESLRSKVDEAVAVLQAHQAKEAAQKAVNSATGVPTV

[16] = target: T6, Polyadenylate-binding protein 1; experiment: MLLE domain peptide-binding blockers, IC50 – biochemical, fluorescence polarization, FITC-PAM2 peptide, dose response (AID 602259); assay type: functional; settings: read-out: IC50_Mean
[17] = target: Ras and Rab interactor 1/Tyrosine-protein kinase ABL1 (Homo sapiens, UniProt P00519+Q13671); assay type: functional;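 further: biochemical TR-FRET dose-response test measuring inhibition of binding between Rin1 and Abl proteins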
Chain of Ras and Rab interactor 1/Tyrosine-protein kinase ABL1 (P00519 whole entry): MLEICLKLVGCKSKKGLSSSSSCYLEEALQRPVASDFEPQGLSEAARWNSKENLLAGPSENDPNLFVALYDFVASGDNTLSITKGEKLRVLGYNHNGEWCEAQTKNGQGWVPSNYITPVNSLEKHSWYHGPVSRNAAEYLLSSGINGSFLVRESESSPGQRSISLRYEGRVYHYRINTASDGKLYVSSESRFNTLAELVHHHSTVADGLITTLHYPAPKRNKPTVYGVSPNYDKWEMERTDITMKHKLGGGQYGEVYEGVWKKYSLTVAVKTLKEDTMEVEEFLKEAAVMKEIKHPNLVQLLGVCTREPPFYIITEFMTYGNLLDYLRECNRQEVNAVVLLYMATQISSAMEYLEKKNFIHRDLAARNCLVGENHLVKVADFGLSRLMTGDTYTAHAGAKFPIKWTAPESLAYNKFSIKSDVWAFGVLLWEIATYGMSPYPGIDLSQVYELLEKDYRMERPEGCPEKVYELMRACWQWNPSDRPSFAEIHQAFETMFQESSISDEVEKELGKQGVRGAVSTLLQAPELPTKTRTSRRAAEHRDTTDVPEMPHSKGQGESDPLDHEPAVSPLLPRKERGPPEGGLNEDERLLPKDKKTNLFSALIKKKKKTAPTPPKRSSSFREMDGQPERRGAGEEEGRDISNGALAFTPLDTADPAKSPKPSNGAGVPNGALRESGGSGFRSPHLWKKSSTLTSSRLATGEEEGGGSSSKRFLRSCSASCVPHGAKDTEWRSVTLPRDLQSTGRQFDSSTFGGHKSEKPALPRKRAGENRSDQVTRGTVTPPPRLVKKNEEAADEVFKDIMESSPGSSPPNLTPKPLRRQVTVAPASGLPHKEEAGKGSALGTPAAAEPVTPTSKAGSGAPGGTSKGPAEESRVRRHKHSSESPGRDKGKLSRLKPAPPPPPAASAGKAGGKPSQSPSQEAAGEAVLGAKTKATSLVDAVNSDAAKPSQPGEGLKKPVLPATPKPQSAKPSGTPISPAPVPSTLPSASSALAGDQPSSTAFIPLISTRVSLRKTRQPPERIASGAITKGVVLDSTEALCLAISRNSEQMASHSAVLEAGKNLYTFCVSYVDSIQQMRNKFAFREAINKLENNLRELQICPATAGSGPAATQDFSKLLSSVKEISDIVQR
Chain of Ras and Rab interactor 1/Tyrosine-protein kinase ABL1 (Q13671 whole entry): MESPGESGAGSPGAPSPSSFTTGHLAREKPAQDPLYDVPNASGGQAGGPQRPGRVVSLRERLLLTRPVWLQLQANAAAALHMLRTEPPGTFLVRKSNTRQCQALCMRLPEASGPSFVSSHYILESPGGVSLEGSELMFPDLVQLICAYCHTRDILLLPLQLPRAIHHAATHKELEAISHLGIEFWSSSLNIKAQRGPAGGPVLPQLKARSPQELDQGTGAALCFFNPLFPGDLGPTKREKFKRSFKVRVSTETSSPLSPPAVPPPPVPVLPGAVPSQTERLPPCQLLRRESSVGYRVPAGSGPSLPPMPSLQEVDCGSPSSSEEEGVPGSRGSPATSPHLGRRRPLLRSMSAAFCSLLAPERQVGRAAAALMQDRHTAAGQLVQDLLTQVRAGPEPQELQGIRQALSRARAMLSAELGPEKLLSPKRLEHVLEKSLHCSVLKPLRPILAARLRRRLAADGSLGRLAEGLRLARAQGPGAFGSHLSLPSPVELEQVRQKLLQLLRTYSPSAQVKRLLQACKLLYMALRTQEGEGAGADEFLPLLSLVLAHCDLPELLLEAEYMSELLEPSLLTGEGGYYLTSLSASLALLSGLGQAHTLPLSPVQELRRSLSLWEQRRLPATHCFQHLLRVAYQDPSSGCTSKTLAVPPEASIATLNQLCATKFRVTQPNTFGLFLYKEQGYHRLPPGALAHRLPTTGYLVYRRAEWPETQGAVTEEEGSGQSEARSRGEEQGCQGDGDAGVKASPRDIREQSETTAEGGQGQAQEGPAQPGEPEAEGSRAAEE

Compound: S=C(c1ccc(Br)cc1)N1CCN(Cc2ccccc2)CC1
IC50 [4]: 0.719 µM (active) | IC50 [5]: 1.81 µM (active) | IC50 [6]: 22.7 µM (inactive)

Compound: Cc1nc(SCc2nc3cc(Br)ccc3[nH]2)c2oc3ccccc3c2n1
IC50 (Prothrombin): 40 µM (active) | IC50 [7]: > 100 µM (inactive) | IC50 [9]: 50 µM (active)

Compound: COc1ccc(CNCCc2ccc(Cl)cc2)cc1OCc1ccccc1
AC50 [10]: 5.59 µM (active) | AC50 [11]: > 70 µM (inactive) | EC50 (Melanocortin receptor 4): > 9.91 µM (active) | AC50 [12]: 11.9 µM (active) | EC50 [13]: < 0.1 µM (active) | EC50 [14]: > 60 µM (not active) | EC50 (cells): 0.114 µM (active)

Compound: O=C(Nc1ccccc1N1CCN(C(=O)c2ccc(Cl)cc2)CC1)c1cccnc1
IC50 [17]: 16.4 µM (inactive)

Compound: CC(=O)Nc1ccc2nc(-c3ccccc3)oc2c1
IC50 [1]: 49.9 µM (active) | IC50 [2]: 46.5 µM (active) | IC50 [3]: 11.6 µM (active) | IC50 (Caspase-3): 14.2 µM (active)

The next lines start with results.

IC50 [2]: > 99 µM (inactive) | IC50 [3]: > 99 µM (inactive) | IC50 (Caspase-3): > 99 µM (inactive)
Compound: CC(C)(C)CC(=O)Nc1ccc(-c2nc3cc(Cl)ccc3o2)cc1
IC50 [1]: > 99 µM (inactive)

IC50 (Prothrombin): 55 µM (active) | IC50 [7]: > 100 µM (inactive) | IC50 [8]: 5.1 µM (active) | IC50 [9]: 23.1 µM (active)
Compound: Cc1ccc(NC(=O)CCc2nc(O)c3c4c(sc3n2)CCCC4)nc1

IC50 [15]: > 66 µM (inactive) | IC50 [16]: > 66 µM (inactive)
Compound: CCCCn1c2ccc(F)cc2c2nnc(SCCN3CCOCC3)nc21

IC50 [17]: 15.5 µM (inactive)
Compound: CC(=O)Nc1cc2c(nc1C)nc(C)n2Cc1ccc(Br)cc1
